Source: patent US20020018792A1, “Skin care anti-sebum compositions containing 3,4,4-trichlorocarbanilide” (Unilever Home & Personal Care USA, Division of Conopco, Inc., priority 2000, published 2002)
“Also recorded” adds a separate entry of the source. Like-named read-outs stand apart in the source and are kept apart here.

Assays:
human sebocytes [1] = assay: in vitro sebum suppression: 14C-acetate label remaining in sebocytes; format: cell-based; conditions: for activity at 1 µM / activity at 10 µM: Homo sapiens, read-out: % of Control
Experimental: Secondary cultures of human sebocytes obtained from an adult […] were grown in 48-well tissue culture plates (Costar Corp.; Cambridge, Mass.) until two days post-confluence. Sebocyte growth medium consisted of Clonetics Keratinocyte Basal Medium (KBM) supplemented with 14 μg/ml bovine pituitary extract, 0.4 μg/ml hydrocortisone, 5 μg/ml insulin, […], 1.2×10^-10 M cholera toxin, 100 units/ml penicillin, and 100 μg/ml streptomycin. All cultures were incubated at 37° C. in the presence of 7.5% CO2. Medium was changed three times per week.
On the day of experimentation, the growth medium was removed and the sebocytes washed three times with sterile Dulbecco's Modified Eagle Medium (DMEM; phenol red free). Fresh DMEM was added to each sample (triplicates) with 1-5 microliter of test agent solubilized in ethanol. Controls consisted of addition of ethanol alone. Each plate was returned to the incubator for 20 hours.
This was followed by the addition of 14C-acetate buffer (5 mM final concentration, 56 mCi/mmol specific activity). Sebocytes were returned to the incubator for four hours afterwhich each culture was rinsed three times with phosphate buffered saline to remove unbound label. Radioactive label remaining in the sebocytes was harvested and counted using a Beckman scintillation counter.

human sebocytes [2] = assay: lactate dehydrogenase activity in sebocyte culture supernatant; format: cell-based; design: key: A340 at 5 min minus initial reading; higher = more LDH; conditions: after 20 hours
Experimental: For the experiments summarized in Tables 1 and 2, lactate dehydrogenase amount was also measured. After 20 hours, 25 μl of supernatant was removed from each well and transferred to a 96-well plate. A vial of lactate dehydrogenase reagent (LD-L-20; Sigma Diagnostics; Cat 228-20) was reconstituted with 20 ml of distilled water. 200 μl of this reconstituted reagent was added to each well and the plate immediately analyzed at 340 nm. After exactly five minutes at room temperature, the plate was re-analyzed at 340 nm. The amount of lactate dehydrogenase activity was calculated by subtracting the initial reading from the five minute reading (this value indicated below in column headed “LDH”). The higher the number, the more lactate dehydrogenase is present. Increased lactate dehydrogenase numbers are associated with cellular crisis. Experimental samples were compared to the value obtained with the ethanol treated control.

`O=S1(=O)OC(c2ccc(O)cc2)(c2ccc(O)cc2)c2ccccc21` [Phenol Red] showed an activity at 1 µM (human sebocytes [1]; Table 2, 1 μM) of 91.4%, an activity at 10 µM (human sebocytes [1]; Table 2, 10 μM) of 70.9% and an LDH (human sebocytes [2]; Table 2, 1 μM, control 0.154) of 0.169. It also gave an LDH (human sebocytes [2]; Table 2, 10 μM, control 0.154) of 0.237.

Compound `CC1=C(/C=C/C(C)=C/C=C/C(C)=C/CO)C(C)(C)CCC1` [Retinol] has an activity at 1 µM (human sebocytes [1]; Table 3, 1 μM) of 104% and an activity at 10 µM (human sebocytes [1]; Table 3, 10 μM) of 102%.

In the case of `O=C(Nc1ccc(Cl)cc1)Nc1ccc(Cl)c(Cl)c1` [TCC, 3,4,4-trichlorocarbanilide], the “% of Control” value (human sebocytes [1]; Table 1, 1 μM, 20 hours then 4 hours 14C-acetate) was 70.4%, the “% of Control” value (human sebocytes [1]; Table 1, 10 μM, 20 hours then 4 hours 14C-acetate) was 1.0% and the “% of Control” value (human sebocytes [1]; Table 1, 100 μM, 20 hours then 4 hours 14C-acetate) was 0.8%. For the same compound, the “% of Control” value (human sebocytes [1]; Table 1, 1 mM, 20 hours then 4 hours 14C-acetate) was 0.8%, the “sebum suppressive effectiveness compared with Phenol Red” value (human sebocytes [1]; Table 2) was “more effective than Phenol Red” and the “% of Control” value (human sebocytes [1]; Table 2, 100 nM) was 80.4%. For the same compound, the “% of Control” value (human sebocytes [1]; Table 2, 500 nM) was 54.6%, the “% of Control” value (human sebocytes [1]; Table 2, 1 μM) was 20.9% and the “sebum suppressive activity in the presence of retinol (retinoid)” value (human sebocytes [1]; Table 3) was “improved sebum suppressive activity; also recorded: significantly enhanced”. The “% of Control” value (human sebocytes [1]; Table 3, 250 nM) was 97.6%, the “% of Control” value (human sebocytes [1]; Table 3, 500 nM) was 75.6% and the “% of Control” value (human sebocytes [1]; Table 3, 1 μM) was 81.4%. The “% of Control” value (human sebocytes [1]; Table 3, 2.5 μM) was 4.3%, the sebum suppressive activity (human sebocytes [1]; summary of Tables 1-3) was “had sebum suppressive activity” and the LDH (human sebocytes [2]; Table 1, 1 μM, 340 nm five minute minus initial reading, control 0.094) was 0.039. The LDH (human sebocytes [2]; Table 1, 10 μM, 340 nm five minute minus initial reading, control 0.094) was 0.059, the LDH (human sebocytes [2]; Table 1, 100 μM, 340 nm five minute minus initial reading, control 0.094) was 0.114 and the LDH (human sebocytes [2]; Table 1, 1 mM, 340 nm five minute minus initial reading, control 0.094) was 0.190. The LDH (human sebocytes [2]; Table 2, 100 nM, control 0.154) was 0.137, the LDH (human sebocytes [2]; Table 2, 500 nM, control 0.154) was 0.136 and the LDH (human sebocytes [2]; Table 2, 1 μM, control 0.154) was 0.183.
